# Data from ChEMBL document CHEMBL3784972, “Optimization of N'-(arylsulfonyl)pyrazoline-1-carboxamidines by exploiting a novel interaction site in the 5-HT6 antagonistic binding pocket” (Bioorg Med Chem Lett, 2016).
# Legend:
# [1] = target: T1, 5-hydroxytryptamine receptor 6 (Homo sapiens, UniProt P50406); experiment: Antagonist activity at human recombinant 5-HT6 receptor expressed in CHO cells assessed as inhibition of agonist induced intracellular calcium levels by aequorin assay; assay type: functional, cell-based; conditions: read-out: pA2 (converted)
# T1 sequence (P50406 whole entry): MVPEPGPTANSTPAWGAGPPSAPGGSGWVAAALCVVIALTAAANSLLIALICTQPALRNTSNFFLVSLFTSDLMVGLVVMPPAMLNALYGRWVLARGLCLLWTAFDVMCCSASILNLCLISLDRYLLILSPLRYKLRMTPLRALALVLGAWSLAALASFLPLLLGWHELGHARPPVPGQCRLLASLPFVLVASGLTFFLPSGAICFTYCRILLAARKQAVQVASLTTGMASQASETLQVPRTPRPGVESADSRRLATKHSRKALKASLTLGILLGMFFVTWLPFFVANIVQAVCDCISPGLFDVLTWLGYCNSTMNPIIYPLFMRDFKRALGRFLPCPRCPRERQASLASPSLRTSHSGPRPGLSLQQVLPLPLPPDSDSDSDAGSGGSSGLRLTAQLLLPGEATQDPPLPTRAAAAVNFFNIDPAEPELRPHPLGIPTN
# [2] = in vitro; conditions: human, hepatocytes
# [3] = in vitro; conditions: Sprague Dawley, rat, hepatocytes
# [4] = target: T1, 5-hydroxytryptamine receptor 6; experiment: Displacement of [3H]-N-Methyl-Lysergic acid diethylamide from human 5-HT6 receptor expressed in CHO cells after 30 mins by liquid scintillation counting analysis; assay type: cell-based
# [5] = tested on: MDR; experiment: in vitro; conditions: pig, LLC-PK1
# Description: Permeability across pig LLC-PK1 cells expressing MDR assessed as ratio of bottom to top transport over top to bottom transport at 1 ug/ml after 3 hrs by LC/MS analysis
# [6] = tested on: LLC-PK1; conditions: pig
# Description: Permeability across pig LLC-PK1 cells expressing MDR assessed as membrane passage at 1 ug/ml after 3 hrs by LC/MS analysis
# [7] = Tmax in rat CNS at 10 mg/kg, po; assay type: ADME, organism-based
# [8] = Fraction unbound in rat brain at 10 mg/kg, po; assay type: ADME, organism-based
# [9] = target: Serotonin (5-HT) receptor; experiment: Binding affinity to 5-HT receptor (unknown origin); assay type: protein assay, Homo sapiens
# [10] = target: Voltage-gated inwardly rectifying potassium channel KCNH2 (Homo sapiens, UniProt Q12809); experiment: Inhibition of human ERG
# Chain of Voltage-gated inwardly rectifying potassium channel KCNH2 (Q12809 whole entry): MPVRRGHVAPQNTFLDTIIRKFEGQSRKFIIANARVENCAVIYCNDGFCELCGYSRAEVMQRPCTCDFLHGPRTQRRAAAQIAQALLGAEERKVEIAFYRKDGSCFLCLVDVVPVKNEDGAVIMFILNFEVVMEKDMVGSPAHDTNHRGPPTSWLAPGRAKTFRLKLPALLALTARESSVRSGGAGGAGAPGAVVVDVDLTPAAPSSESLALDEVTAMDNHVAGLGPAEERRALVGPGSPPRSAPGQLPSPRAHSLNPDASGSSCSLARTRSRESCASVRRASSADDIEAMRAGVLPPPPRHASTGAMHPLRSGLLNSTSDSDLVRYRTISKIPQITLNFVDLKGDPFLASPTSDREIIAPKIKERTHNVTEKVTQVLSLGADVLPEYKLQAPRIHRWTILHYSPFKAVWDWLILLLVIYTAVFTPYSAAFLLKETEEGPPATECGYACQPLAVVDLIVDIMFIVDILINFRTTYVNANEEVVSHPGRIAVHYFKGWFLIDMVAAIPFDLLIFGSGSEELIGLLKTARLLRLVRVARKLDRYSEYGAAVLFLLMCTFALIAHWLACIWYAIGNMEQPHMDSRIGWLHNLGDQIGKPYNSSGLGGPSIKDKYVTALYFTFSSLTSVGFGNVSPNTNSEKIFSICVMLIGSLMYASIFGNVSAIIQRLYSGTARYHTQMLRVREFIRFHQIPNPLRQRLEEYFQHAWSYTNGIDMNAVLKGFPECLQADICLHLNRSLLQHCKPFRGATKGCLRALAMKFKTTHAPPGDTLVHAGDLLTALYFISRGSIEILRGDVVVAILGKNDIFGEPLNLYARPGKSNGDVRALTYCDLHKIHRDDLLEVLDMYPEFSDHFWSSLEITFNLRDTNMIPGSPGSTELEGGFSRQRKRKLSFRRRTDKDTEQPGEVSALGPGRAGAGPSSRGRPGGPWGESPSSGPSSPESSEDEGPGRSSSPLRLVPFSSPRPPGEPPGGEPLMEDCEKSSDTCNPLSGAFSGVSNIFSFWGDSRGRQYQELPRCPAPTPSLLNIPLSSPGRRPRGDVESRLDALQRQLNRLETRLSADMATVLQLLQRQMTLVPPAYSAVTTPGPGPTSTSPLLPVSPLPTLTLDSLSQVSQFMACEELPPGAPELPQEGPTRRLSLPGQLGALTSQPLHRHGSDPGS
# [11] = Oral bioavailability in rat at 10 mg/kg; assay type: ADME, organism-based; conditions: in vivo
# [12] = Binding affinity to Muscarinic receptor (unknown origin); design: species or system Homo sapiens
# [13] = Ratio of drug uptake in rat CNS to plasma at 10 mg/kg, po; assay type: ADME, organism-based
# [14] = Tmax in rat plasma at 10 mg/kg, po; assay type: ADME, organism-based
# [15] = Binding affinity to alpha adrenergic receptor (unknown origin); design: species or system Homo sapiens
# [16] = target: Cannabinoid receptor (Homo sapiens, UniProt P34972+P21554); experiment: Binding affinity to Cannabinoid receptor (unknown origin); assay type: protein assay
# [17] = target: Dopamine receptor; experiment: Binding affinity to dopamine receptor (unknown origin); assay type: protein assay, Homo sapiens
# [18] = Clearance in rat at 10 mg/kg, po; assay type: ADME, organism-based; conditions: in vivo
# [19] = Lipophilicity, log D of the compound at pH 7; assay type: physicochemical; conditions: buffer
# [20] = tested on: Rattus norvegicus; experiment: Inhibition of cognitive impairment in po dosed rat administered 0.5 hrs before testing; assay type: functional
# [21] = Cmax in rat plasma at 20 mg/kg, po; assay type: ADME, organism-based; design: dose 20 mg/kg, route oral
SMILES,Kb [1] [nM],hepatocyte CLint [2] [µL/min/1e6 cells],hepatocyte CLint [3] [µL/min/1e6 cells],Ki [4] [nM],"efflux ratio at 3 h, 1 ug/ml [5]","permeability ([6]; llc-pk1, 3 h, at 1 µg/mL) [%]",also measured
CCN/C(=N\S(=O)(=O)c1ccc2[nH]ncc2c1)N1CC2(C=N1)CCCC2,12.6,19,99,28.6,–,–,–
CCN/C(=N\S(=O)(=O)c1cc(O)cc(Cl)c1)N1CC2(C=N1)CCCC2,0.0501,107,–,6.1,–,–,–
CCN/C(=N\S(=O)(=O)c1ccc2cc[nH]c2c1)N1CC(CC)C=N1 (stereo not given),79.4,–,–,31.6,2.8,37.7,–
CCN/C(=N\S(=O)(=O)c1cccc(O)c1)N1CC2(C=N1)CCCC2,7.94,–,–,18.5,1.1,40.7,–
CCN/C(=N\S(=O)(=O)c1cc(Cl)cc(OC)c1)N1CC2(C=N1)CCCC2,63.1,–,–,47.5,–,–,–
CCN/C(=N\S(=O)(=O)c1ccc2[nH]ccc2c1)N1CC2(C=N1)CCNCC2,–,1,–,11.6,–,–,–
CCN/C(=N\S(=O)(=O)c1ccc(N)c(Cl)c1)N1CC(CC)C=N1 (stereo not given),0.794,10,87,1.5,1.6,38.5,–
CCN/C(=N\S(=O)(=O)c1ccc2[nH]ccc2c1)N1CC2(C=N1)CCCC2,0.316,11,87,4.8,–,–,–
CCN/C(=N\S(=O)(=O)c1ccc(N)cc1)N1CC(C)(C)C=N1,–,< 1.4,20,20.6,3,31.6,–
CCN/C(=N\S(=O)(=O)c1ccc(N(C)C)cc1)N1CC(CC)C=N1 (stereo not given),> 1000,–,–,206,1.4,38.2,–
CCN/C(=N\S(=O)(=O)c1cccc(Cl)c1)N1N=CCC1c1ccc(N)cc1 (stereo not given),1580,–,–,> 1000,2.7,36.2,–
CCN/C(=N\S(=O)(=O)c1ccc(N)cc1)N1CC2(C=N1)CCCC2,3.98,8,33,–,2.9,35.1,Tmax [7]: 30 min; fraction unbound [8]: 0.31; Ki [9]: > 1000 nM; IC50 [10]: > 10000 nM; bioavailability [11]: 18%; Ki [12]: > 1000 nM; Kp [13]: 0.1; Tmax [14]: 30 min; Ki [15]: > 1000 nM; Ki [16]: > 1000 nM; Ki [17]: > 1000 nM; CL/F [18]: 26 mL/min/kg; logD [19]: 1; LED [20]: 20 mg/kg; Cmax [21]: 1100 ng/mL
CCN/C(=N\S(=O)(=O)c1cccc(OC)c1)N1CC2(C=N1)CCCC2,126,–,–,97.1,3.2,35.2,–
CCN/C(=N\S(=O)(=O)c1cccc(Cl)c1)N1CC(C)(C)C=N1,–,–,–,–,–,41,–
CCN/C(=N\S(=O)(=O)c1cccc(Cl)c1)N1N=CCC1c1ccc(O)cc1 (stereo not given),> 1000,–,–,251,4.9,34.9,–
CCN/C(=N\S(=O)(=O)c1ccc2c(c1)CCN2)N1CC2(C=N1)CCCC2,5.01,–,–,25,2.6,36.5,–
CCN/C(=N\S(=O)(=O)c1ccc(O)cc1)N1CC2(C=N1)CCCC2,3.16,21,42,5.8,5.9,32,–
CCN/C(=N\S(=O)(=O)c1ccc2[nH]c(C(F)(F)F)cc2c1)N1CC(C)(C)C=N1,> 1000,22,87,160,–,–,–
CCN/C(=N\S(=O)(=O)c1ccc(N)cc1)N1CC2(C=N1)CCCCC2,5.01,17,53,7.1,3.3,36.5,–
CCN/C(=N\S(=O)(=O)c1ccc(OC)cc1)N1CC2(C=N1)CCCC2,> 1000,–,–,210,1.2,40.4,–
CCN/C(=N\S(=O)(=O)c1ccc(NC(C)=O)c(Cl)c1)N1CC(CC)C=N1 (stereo not given),10,–,–,8.7,2,34.4,–
CCN/C(=N\S(=O)(=O)c1cccc(N)c1)N1CC2(C=N1)CCCC2,100,–,–,97.2,3.2,35.7,–
CCN/C(=N\S(=O)(=O)c1cccc(Cl)c1)N1N=CCC1c1ccccc1 (stereo not given),–,–,–,–,–,–,"permeability ([6]; LLC-PK1, 3 h): 38.5%"
CCN/C(=N\S(=O)(=O)c1ccc(O)c(Cl)c1)N1CC2(C=N1)CCCC2,10,34,66,14.6,2.4,20.5,–
CCN/C(=N\S(=O)(=O)c1ccc(OC)c(Cl)c1)N1CC2(C=N1)CCCC2,> 1000,–,–,> 1000,1.3,39.4,–
CCN/C(=N\S(=O)(=O)c1ccc2c(c1)NCC2)N1CC(CC)C=N1 (stereo not given),> 1000,–,–,399,1.8,36.5,–
CCN/C(=N\S(=O)(=O)c1ccc(N)c(Cl)c1)N1CC2(C=N1)CCCC2,–,27,–,1.8,–,38.1,–
CCN/C(=N\S(=O)(=O)c1ccc(N)cc1)N1CC2(C=N1)CCNCC2,–,1,5,14.2,–,0.3,–
CCN/C(=N\S(=O)(=O)c1ccccc1)N1CC(CC)C=N1 (stereo not given),–,15,92,–,1.1,38.2,–
CCN/C(=N\S(=O)(=O)c1ccc(N)cc1)N1CC(CC)C=N1 (stereo not given),3.98,4,34,7.2,2.4,31.6,–
